From patent US20260138990A1, “TRICYCLIC FUSED IMIDAZOLE COMPOUNDS AS CD38 MODULATORS AND USES THEREOF” (AEOVIAN PHARMACEUTICALS, INC., priority 2023, published 2026)

What was measured:
[1] = molecular target: T1, mouse CD38 (Mus musculus, UniProt P56528); experiment: NAD+ cyclase activity assay with mouse recombinant CD38 protein (ε-NAD fluorescence); format: biochemical; conditions: 0.6 nM mouse CD38, substrate ε-NAD, 30 min preincubation, fluorescence 300/410 nm
T1 construct: purchased Bio-Techne GmbH 4947-AC
T1 sequence (P56528 1-304): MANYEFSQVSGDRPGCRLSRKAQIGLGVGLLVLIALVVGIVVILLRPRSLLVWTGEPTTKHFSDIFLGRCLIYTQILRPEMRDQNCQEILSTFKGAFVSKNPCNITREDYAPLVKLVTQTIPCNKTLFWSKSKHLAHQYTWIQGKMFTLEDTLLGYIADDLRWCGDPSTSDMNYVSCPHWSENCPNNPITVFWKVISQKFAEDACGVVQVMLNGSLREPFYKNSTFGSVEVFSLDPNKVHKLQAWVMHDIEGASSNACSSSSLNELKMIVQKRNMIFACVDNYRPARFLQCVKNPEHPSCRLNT
In short: (§1)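 Twelve-point threefold compound dilutions were given 30 min at room temperature with 0.6 nM mouse or 1.9 nM human CD38 before […] ε-NAD was added (pH 7.5 HEPES/sucrose/Tween buffer). The rate came from the linear-phase slope of ex 300/em 410 nm fluorescence against vehicle and no-CD38 controls.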

[2] = molecular target: T2, human CD38 (Homo sapiens, UniProt P28907); experiment: NAD+ cyclase activity assay with human recombinant CD38 protein (ε-NAD fluorescence); format: biochemical; conditions: 1.9 nM human CD38, substrate ε-NAD, 30 min preincubation, fluorescence 300/410 nm
T2 construct: purchased Bio-Techne GmbH AVI2404
T2 sequence (P28907 1-300): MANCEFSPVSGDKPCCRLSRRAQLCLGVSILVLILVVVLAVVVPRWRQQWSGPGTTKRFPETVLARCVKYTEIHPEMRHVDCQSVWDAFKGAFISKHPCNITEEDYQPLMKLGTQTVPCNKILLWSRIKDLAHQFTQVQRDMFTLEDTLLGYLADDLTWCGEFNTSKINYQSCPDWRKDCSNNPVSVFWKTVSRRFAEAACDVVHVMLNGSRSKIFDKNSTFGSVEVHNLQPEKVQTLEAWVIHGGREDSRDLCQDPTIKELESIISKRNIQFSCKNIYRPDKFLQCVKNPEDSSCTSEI
In short: as §1

IC50 [1] [nM]	IC50 [2] [nM]	SMILES
1 to 10	< 30	O=C(Nc1cnc(OCCCF)nc1)c1ccc2c(c1)-c1cncn1CCO2 [Compound 102A, N-(2-(3-Fluoropropoxy)pyrimidin-5-yl)-5,6-dihydrobenzo[f]imidazo[1,5-d][1,4]oxazepine-10-carboxamide]
1 to 10	< 30	O=C(Nc1cnc(OCCC(F)F)nc1)c1ccc2c(c1)-c1cncn1CCO2 [Compound 103A, N-(2-(3,3-Difluoropropoxy)pyrimidin-5-yl)-5,6-dihydrobenzo[f]imidazo[1,5-d][1,4]oxazepine-10-carboxamide]
1 to 10	< 30	O=C(Nc1cnc(OCCC(F)(F)F)nc1)c1ccc2c(c1)-c1cncn1CCO2 [Compound 104A, N-(2-(3,3,3-Trifluoropropoxy)pyrimidin-5-yl)-5,6-dihydrobenzo[f]imidazo[1,5-d][1,4]oxazepine-10-carboxamide]
1 to 10	30 to 100	O=C(N[C@H]1CC[C@H](CN2CC(F)(F)C2)CC1)c1ccc2c(c1)-c1cncn1CCO2 [Compound 105A, N-((1r,4r)-4-((3,3-Difluoroazetidin-1-yl)methyl)cyclohexyl)-5,6-dihydrobenzo[f]imidazo[1,5-d][1,4]oxazepine-10-carboxamide]
1 to 10	30 to 100	CS(=O)(=O)CCN[C@H]1CC[C@H](NC(=O)c2ccc3c(c2)-c2cncn2CCO3)CC1 [Compound 106A, N-((1r,4r)-4-((2-(Methylsulfonyl)ethyl)amino)cyclohexyl)-5,6-dihydrobenzo[f]imidazo[1,5-d][1,4]oxazepine-10-carboxamide]
1 to 10	30 to 100	O=C(N[C@H]1CC[C@H](N2CC(C(F)(F)F)C2)CC1)c1ccc2c(c1)-c1cncn1CCO2 [Compound 107A, N-((1r,4r)-4-(3-(Trifluoromethyl)azetidin-1-yl)cyclohexyl)-5,6-dihydrobenzo[f]imidazo[1,5-d][1,4]oxazepine-10-carboxamide]
< 1	< 30	O=C(N[C@@H]1CCC(F)(F)C1)c1cc(F)c2c(c1)-c1cncn1CCO2 [Compound 108A, (R)—N-(3,3-Difluorocyclopentyl)-8-fluoro-5,6-dihydrobenzo[f]imidazo[1,5-d][1,4]oxazepine-10-carboxamide]
1 to 10	< 30	O=C(Nc1cnc(OCC(F)(F)F)nc1)c1ccc2c(c1)-c1cncn1CCO2 [Compound 109A, N-(2-(2,2,2-Trifluoroethoxy)pyrimidin-5-yl)-5,6-dihydrobenzo[f]imidazo[1,5-d][1,4]oxazepine-10-carboxamide]
1 to 10	30 to 100	O=C(N[C@H]1CC[C@H](NCCC(F)(F)F)CC1)c1ccc2c(c1)-c1cncn1CCO2 [Compound 110A, N-((1r,4r)-4-((3,3,3-Trifluoropropyl)amino)cyclohexyl)-5,6-dihydrobenzo[f]imidazo[1,5-d][1,4]oxazepine-10-carboxamide]
> 100	100 to 1000	O=C(N[C@H]1CC[C@@H](NCCC(F)(F)F)CC1)c1ccc2c(c1)-c1cncn1CCO2 [Compound 111A, N-((1s,4s)-4-((3,3,3-Trifluoropropyl)amino)cyclohexyl)-5,6-dihydrobenzo[f]imidazo[1,5-d][1,4]oxazepine-10-carboxamide]
< 1	< 30	O=C(N[C@@H]1CCC(F)(F)C1)c1cc(Cl)c2c(c1)-c1cncn1CCO2 [Compound 112A, (R)-8-Chloro-N-(3,3-difluorocyclopentyl)-5,6-dihydrobenzo[f]imidazo[1,5-d][1,4]oxazepine-10-carboxamide]
1 to 10	< 30	O=C(N[C@H]1CC[C@H](N2CC(C(F)F)C2)CC1)c1ccc2c(c1)-c1cncn1CCO2 [Compound 113A, N-((1r,4r)-4-(3-(Difluoromethyl)azetidin-1-yl)cyclohexyl)-5,6-dihydrobenzo[f]imidazo[1,5-d][1,4]oxazepine-10-carboxamide]
< 1	< 30	CC(C)(O)[C@H]1CC[C@H](NC(=O)c2cc(F)c3c(c2)-c2cncn2CCO3)CC1 [Compound 114A, 8-Fluoro-N-((1r,4r)-4-(2-hydroxypropan-2-yl)cyclohexyl)-5,6-dihydrobenzo[f]imidazo[1,5-d][1,4]oxazepine-10-carboxamide]
< 1	< 30	O=C(N[C@H]1CC[C@H](NCC(F)(F)F)CC1)c1cc(F)c2c(c1)-c1cncn1CCO2 [Compound 115A, 8-Fluoro-N-((1r,4r)-4-((2,2,2-trifluoroethyl)amino)cyclohexyl)-5,6-dihydrobenzo[f]imidazo[1,5-d][1,4]oxazepine-10-carboxamide]
< 1	< 30	O=C(N[C@@H]1CCCC(F)(F)C1)c1ccc2c(c1)-c1cncn1CCO2 [Compound 116A, (R)—N-(3,3-Difluorocyclohexyl)-5,6-dihydrobenzo[f]imidazo[1,5-d][1,4]oxazepine-10-carboxamide]
1 to 10	30 to 100	O=C(N[C@H]1CCCC(F)(F)C1)c1ccc2c(c1)-c1cncn1CCO2 [Compound 117A, (S)—N-(3,3-Difluorocyclohexyl)-5,6-dihydrobenzo[f]imidazo[1,5-d][1,4]oxazepine-10-carboxamide]
> 100	> 1000	O=C(N[C@H]1CC[C@@H](OCC2(C(F)(F)F)CC2)CC1)c1ccc2c(c1)-c1cncn1CCO2 [Compound 118A, N-((1s,4s)-4-((1-(Trifluoromethyl)cyclopropyl)methoxy)cyclohexyl)-5,6-dihydrobenzo[f]imidazo[1,5-d][1,4]oxazepine-10-carboxamide]
1 to 10	< 30	O=C(NC1CCC(CC(F)(F)F)CC1)c1ccc2c(c1)-c1cncn1CCO2 (stereo not drawn) [Compound 119A, N-(4-(2,2,2-Trifluoroethyl)cyclohexyl)-5,6-dihydrobenzo[f]imidazo[1,5-d][1,4]oxazepine-10-carboxamide]
1 to 10	< 30	CC(C)(CO[C@H]1CC[C@H](NC(=O)c2ccc3c(c2)-c2cncn2CCO3)CC1)C(F)(F)F [Compound 120A, N-((1r,4r)-4-(3,3,3-Trifluoro-2,2-dimethylpropoxy)cyclohexyl)-5,6-dihydrobenzo[f]imidazo[1,5-d][1,4]oxazepine-10-carboxamide]
> 100	> 1000	CC(C)(CO[C@H]1CC[C@@H](NC(=O)c2ccc3c(c2)-c2cncn2CCO3)CC1)C(F)(F)F [Compound 121A, N-((1s,4s)-4-(3,3,3-Trifluoro-2,2-dimethylpropoxy)cyclohexyl)-5,6-dihydrobenzo[f]imidazo[1,5-d][1,4]oxazepine-10-carboxamide]
1 to 10	< 30	O=C(N[C@H]1CC[C@H](OCC(F)(F)F)CC1)c1ccc2c(c1)-c1cncn1CCO2 [Compound 122A, N-((1r,4r)-4-(2,2,2-Trifluoroethoxy)cyclohexyl)-5,6-dihydrobenzo[f]imidazo[1,5-d][1,4]oxazepine-10-carboxamide]
10 to 100	100 to 1000	O=C(N[C@H]1CC[C@@H](OCC(F)(F)F)CC1)c1ccc2c(c1)-c1cncn1CCO2 [Compound 123A, N-((1s,4s)-4-(2,2,2-Trifluoroethoxy)cyclohexyl)-5,6-dihydrobenzo[f]imidazo[1,5-d][1,4]oxazepine-10-carboxamide]
10 to 100	< 30	O=C(Nc1cnc(N2CC(C(F)F)C2)nc1)c1ccc2c(c1)-c1cncn1CCO2 [Compound 124A, N-(2-(3-(Difluoromethyl)azetidin-1-yl)pyrimidin-5-yl)-5,6-dihydrobenzo[f]imidazo[1,5-d][1,4]oxazepine-10-carboxamide]
1 to 10	< 30	CCC1CCC(NC(=O)c2ccc3c(c2)-c2cncn2CCO3)CC1 (stereo not drawn) [Compound 125A, N-(4-Ethylcyclohexyl)-5,6-dihydrobenzo[f]imidazo[1,5-d][1,4]oxazepine-10-carboxamide]
1 to 10	30 to 100	CC(O)C1CCC(NC(=O)c2ccc3c(c2)-c2cncn2CCO3)CC1 (stereo not drawn) [Compound 126A, N-(4-(1-Hydroxyethyl)cyclohexyl)-5,6-dihydrobenzo[f]imidazo[1,5-d][1,4]oxazepine-10-carboxamide]
1 to 10	< 30	COC(C)(C)CO[C@H]1CC[C@H](NC(=O)c2ccc3c(c2)-c2cncn2CCO3)CC1 [Compound 127A, N-((1r,4r)-4-(2-Methoxy-2-methylpropoxy)cyclohexyl)-5,6-dihydrobenzo[f]imidazo[1,5-d][1,4]oxazepine-10-carboxamide]
10 to 100	100 to 1000	COC(C)(C)CO[C@H]1CC[C@@H](NC(=O)c2ccc3c(c2)-c2cncn2CCO3)CC1 [Compound 128A, N-((1s,4s)-4-(2-Methoxy-2-methylpropoxy)cyclohexyl)-5,6-dihydrobenzo[f]imidazo[1,5-d][1,4]oxazepine-10-carboxamide]
